Experimental data: ChEMBL document CHEMBL4304758, “Development of Peptide-Based Sirtuin Defatty-Acylase Inhibitors Identified by the Fluorescence Probe, SFP3, That Can Efficiently Measure Defatty-Acylase Activity of Sirtuin” (J Med Chem, 2019)
Structures can show the parent of a compound that is named as a salt. Residues, ends and D or L forms follow the SMILES beside them. *: point of attachment. Tfa = O=C(C(F)(F)F)*

Assays:
[1] = target: T1, NAD-dependent protein deacetylase sirtuin-2 (Homo sapiens, UniProt Q8IXJ6); experiment: Inhibition of recombinant human SIRT2 defatty-acylase activity using SFP3 as substrate measured at 5 mins interval for 60 mins in presence of NAD+ by fluorescence assay
T1 sequence (Q8IXJ6 whole entry): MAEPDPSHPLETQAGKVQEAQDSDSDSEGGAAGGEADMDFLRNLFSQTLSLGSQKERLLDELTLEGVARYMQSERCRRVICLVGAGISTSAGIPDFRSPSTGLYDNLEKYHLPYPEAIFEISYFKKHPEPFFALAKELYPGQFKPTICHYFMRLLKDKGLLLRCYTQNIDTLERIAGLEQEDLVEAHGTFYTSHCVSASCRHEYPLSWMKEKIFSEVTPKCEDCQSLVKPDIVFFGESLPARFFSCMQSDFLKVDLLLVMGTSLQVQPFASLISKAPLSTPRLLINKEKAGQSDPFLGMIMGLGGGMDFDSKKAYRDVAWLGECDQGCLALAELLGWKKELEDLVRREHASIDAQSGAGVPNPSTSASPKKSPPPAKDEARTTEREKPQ

[2] = target: T1, NAD-dependent protein deacetylase sirtuin-2; experiment: Inhibition of recombinant human SIRT2 demyristoylase activity using p53(Myr)-AMC as substrate measured after 3 hrs in presence of NAD+ and trypsin by fluorescence assay
[3] = target: T1, NAD-dependent protein deacetylase sirtuin-2; experiment: Inhibition of recombinant human SIRT2 deacylation activity using Fluor de Lys Sirt2 as substrate measured at 5 mins interval for 30 mins in presence of NAD+ by fluorescence assay
[4] = target: T2, NAD-dependent protein deacetylase sirtuin-1 (Homo sapiens, UniProt Q96EB6); experiment: Inhibition of recombinant human C-terminal His6-tagged SIRT1 (Met1 to Ser747 residues) defatty-acylase activity expressed in Escherichia coli using SFP3 as substrate measured at 5 mins interval for 60 mins in presence of NAD+ by fluorescence assay
T2 sequence (Q96EB6 whole entry): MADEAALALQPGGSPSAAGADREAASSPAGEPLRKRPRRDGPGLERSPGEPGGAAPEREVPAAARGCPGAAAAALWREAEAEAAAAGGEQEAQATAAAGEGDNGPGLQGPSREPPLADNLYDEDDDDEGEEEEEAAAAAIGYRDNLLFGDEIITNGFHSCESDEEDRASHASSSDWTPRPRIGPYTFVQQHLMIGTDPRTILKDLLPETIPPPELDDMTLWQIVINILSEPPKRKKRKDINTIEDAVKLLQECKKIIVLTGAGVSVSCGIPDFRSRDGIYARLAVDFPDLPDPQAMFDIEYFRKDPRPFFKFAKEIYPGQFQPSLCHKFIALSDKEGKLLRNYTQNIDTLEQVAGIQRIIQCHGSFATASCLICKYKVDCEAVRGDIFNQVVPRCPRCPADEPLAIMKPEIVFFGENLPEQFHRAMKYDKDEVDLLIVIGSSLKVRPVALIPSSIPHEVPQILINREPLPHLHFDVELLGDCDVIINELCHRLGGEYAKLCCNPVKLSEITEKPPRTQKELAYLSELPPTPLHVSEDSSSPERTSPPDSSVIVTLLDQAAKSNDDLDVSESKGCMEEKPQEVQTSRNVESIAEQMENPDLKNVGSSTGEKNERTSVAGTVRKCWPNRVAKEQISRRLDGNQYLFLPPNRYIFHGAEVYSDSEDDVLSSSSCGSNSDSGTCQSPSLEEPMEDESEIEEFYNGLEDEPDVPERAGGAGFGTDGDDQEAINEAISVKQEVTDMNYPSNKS

[5] = target: T3, NAD-dependent protein deacetylase sirtuin-3, mitochondrial (Homo sapiens, UniProt Q9NTG7); experiment: Inhibition of recombinant human SIRT3 (118 to 399 residues) defatty-acylase activity expressed in Escherichia coli using SFP3 as substrate measured at 5 mins interval for 60 mins in presence of NAD+ by fluorescence assay
T3 sequence (Q9NTG7 whole entry): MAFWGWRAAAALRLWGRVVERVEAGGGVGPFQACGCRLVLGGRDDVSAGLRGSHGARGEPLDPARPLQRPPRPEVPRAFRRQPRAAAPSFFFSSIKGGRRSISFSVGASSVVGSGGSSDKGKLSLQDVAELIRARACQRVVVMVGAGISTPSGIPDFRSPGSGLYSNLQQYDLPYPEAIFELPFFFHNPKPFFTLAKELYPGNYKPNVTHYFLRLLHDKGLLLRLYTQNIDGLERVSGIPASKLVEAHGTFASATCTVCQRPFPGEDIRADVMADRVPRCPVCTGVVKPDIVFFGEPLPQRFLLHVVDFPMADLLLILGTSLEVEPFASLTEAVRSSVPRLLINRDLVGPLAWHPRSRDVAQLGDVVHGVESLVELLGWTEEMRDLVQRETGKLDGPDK

[6] = target: T1, NAD-dependent protein deacetylase sirtuin-2; experiment: Inhibition of recombinant human SIRT2 deacylation activity expressed in Escherichia coli Rosetta2 using Fluor-de-Lys-SIRT2 deacetylase substrate measured after 2 hrs by fluorescence assay

IC50 [1]: 320 nM
IC50 [2]: 1100 nM
IC50 [3]: 67 nM
IC50 [4]: > 2000 nM
IC50 [5]: 540 nM
IC50 [6]: 31 nM
Compound: CC[C@H](C)[C@H](NC(=O)[C@H](CCCNC(=N)N)NC(C)=O)C(=O)N[C@@H](CCCCNC(=O)C(F)(F)F)C(=O)N[C@@H](CCCNC(=N)N)C(=O)N[C@@H](Cc1ccc(O)cc1)C(N)=O (Ac-RIK(Tfa)RY-NH2)
